This note sets out measurements from paper PMC3914206.

Each structure is given as a SMILES string.

Experiment [1] addresses T1, panel of 442 kinases (Homo sapiens, UniProt Q16584).
T1 construct: purchased KINOMEscan
The experiment is classed as binding. The following applies: Compound Concentration 10 µM. An excerpt:
(§1) We assessed the selectivity of members of this scaffold using the KINOMEscan methodology across a near comprehensive panel of 442 kinases [[18,27]].

Experiment [2] concerns the target T2, panel of 442 kinases (Homo sapiens, UniProt Q96PY6).
T2 construct: purchased KINOMEscan
T2 sequence (Q96PY6 1-1258): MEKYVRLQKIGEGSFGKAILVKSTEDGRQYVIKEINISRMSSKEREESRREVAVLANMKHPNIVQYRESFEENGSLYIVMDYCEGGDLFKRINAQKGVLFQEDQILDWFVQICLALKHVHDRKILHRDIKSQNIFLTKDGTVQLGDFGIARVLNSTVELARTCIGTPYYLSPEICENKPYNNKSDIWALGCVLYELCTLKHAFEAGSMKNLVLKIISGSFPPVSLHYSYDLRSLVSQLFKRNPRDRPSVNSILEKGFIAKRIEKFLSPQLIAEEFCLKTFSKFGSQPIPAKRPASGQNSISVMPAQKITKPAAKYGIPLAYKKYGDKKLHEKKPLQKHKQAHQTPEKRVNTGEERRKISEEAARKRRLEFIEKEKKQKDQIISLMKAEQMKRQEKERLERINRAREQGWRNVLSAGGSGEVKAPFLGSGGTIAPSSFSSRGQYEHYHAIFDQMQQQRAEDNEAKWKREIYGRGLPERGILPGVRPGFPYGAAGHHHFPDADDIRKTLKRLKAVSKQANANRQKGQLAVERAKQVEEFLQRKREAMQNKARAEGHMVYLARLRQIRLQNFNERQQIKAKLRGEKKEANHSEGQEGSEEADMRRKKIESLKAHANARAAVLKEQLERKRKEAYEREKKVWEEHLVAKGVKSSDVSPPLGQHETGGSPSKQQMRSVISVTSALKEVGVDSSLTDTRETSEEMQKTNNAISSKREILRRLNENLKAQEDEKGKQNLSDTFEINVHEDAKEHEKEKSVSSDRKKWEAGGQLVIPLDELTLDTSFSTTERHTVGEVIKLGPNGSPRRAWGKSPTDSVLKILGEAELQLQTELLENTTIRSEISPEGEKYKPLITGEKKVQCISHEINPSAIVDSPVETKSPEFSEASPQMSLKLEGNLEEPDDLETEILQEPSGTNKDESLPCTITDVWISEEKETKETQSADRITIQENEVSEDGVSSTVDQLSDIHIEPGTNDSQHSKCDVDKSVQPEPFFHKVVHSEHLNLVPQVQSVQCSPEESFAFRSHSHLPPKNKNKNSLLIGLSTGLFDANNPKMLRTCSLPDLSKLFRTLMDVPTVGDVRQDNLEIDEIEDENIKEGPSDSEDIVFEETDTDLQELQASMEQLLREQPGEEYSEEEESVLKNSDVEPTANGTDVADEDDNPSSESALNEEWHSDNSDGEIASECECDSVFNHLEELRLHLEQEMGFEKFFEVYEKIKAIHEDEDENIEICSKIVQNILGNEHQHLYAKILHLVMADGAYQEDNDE
It is filed as binding. The note with it: Compound Concentration 10 µM.
Excerpt: as §1

T1 sequence (Q16584 whole entry): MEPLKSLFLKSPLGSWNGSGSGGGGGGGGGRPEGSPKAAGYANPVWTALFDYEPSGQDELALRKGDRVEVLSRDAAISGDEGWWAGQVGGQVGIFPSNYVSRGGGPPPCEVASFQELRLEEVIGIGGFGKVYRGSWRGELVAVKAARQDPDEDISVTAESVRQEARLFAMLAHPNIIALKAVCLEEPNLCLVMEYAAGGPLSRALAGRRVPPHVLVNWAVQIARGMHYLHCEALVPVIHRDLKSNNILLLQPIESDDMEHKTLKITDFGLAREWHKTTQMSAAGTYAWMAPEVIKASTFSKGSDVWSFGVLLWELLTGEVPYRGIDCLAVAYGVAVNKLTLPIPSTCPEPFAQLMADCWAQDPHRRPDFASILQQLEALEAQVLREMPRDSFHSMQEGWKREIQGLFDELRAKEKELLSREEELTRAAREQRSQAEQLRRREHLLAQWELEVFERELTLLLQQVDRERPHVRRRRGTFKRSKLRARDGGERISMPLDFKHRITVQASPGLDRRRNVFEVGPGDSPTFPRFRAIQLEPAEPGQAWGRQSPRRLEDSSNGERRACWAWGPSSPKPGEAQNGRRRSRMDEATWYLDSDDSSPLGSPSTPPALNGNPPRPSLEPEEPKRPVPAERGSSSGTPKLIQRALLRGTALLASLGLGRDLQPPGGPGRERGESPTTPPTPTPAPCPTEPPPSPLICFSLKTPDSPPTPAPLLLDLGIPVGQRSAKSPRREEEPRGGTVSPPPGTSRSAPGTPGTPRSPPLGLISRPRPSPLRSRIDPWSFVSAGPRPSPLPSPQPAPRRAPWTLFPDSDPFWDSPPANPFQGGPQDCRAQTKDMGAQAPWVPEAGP

With `COc1cc(C(=O)N2CCC(N3CCN(C)CC3)CC2)ccc1Nc1ncc2c(n1)N(C)c1ccccc1C(=O)N2C` [15 (LRRK2-IN-1)], the “KINOMEscan: MLK3” value on panel of 442 kinases [1] was determined as 100. For the same compound, the “KINOMEscan: NEK1” value at panel of 442 kinases [2] worked out at 83.
As for `COc1cc(C(=O)N2CCC(N3CCN(C)CC3)CC2)ccc1Nc1ncc2c(n1)N1CCc3cccc(c31)C(=O)N2C` [Compound 24], the “KINOMEscan: NEK1” value at panel of 442 kinases [2] is 63.
Turning to `COc1cc(C(=O)N2CCC(N3CCN(C)CC3)CC2)ccc1Nc1ncc2c(n1)N(C1CCCC1)c1ccccc1C(=O)N2C` [Compound 25, 11-cyclopentyl-2-((2-methoxy-4-(4-(4-methylpiperazin-1-yl)piperidine-1-carbonyl)phenyl)amino)-5-methyl-5H-benzo[e]pyrimido[5,4-b][1,4]diazepin-6(11H)-one], the “KINOMEscan: MLK3” value on panel of 442 kinases [1] is given as 100. In addition, the “KINOMEscan: NEK1” value on panel of 442 kinases [2] is listed as 72.
With `CCOc1cc(C(=O)N2CCC(N3CCN(C)CC3)CC2)ccc1Nc1ncc2c(n1)N(C1CCCC1)c1ccccc1C(=O)N2C` [Compound 26], at panel of 442 kinases [1], the “KINOMEscan: MLK3” value is 100. Also, the “KINOMEscan: NEK1” value at panel of 442 kinases [2] worked out at 84.
